Measurements taken from the supplement of paper PMC10307832.

Experiments:
Assay in all cases: relative viability (nuclei count vs DMSO), 5 days (fraction); higher = more cells survive
Ibrutinib + Foretinib = compound: C=CC(=O)N1CCC[C@@H](n2nc(-c3ccc(Oc4ccccc4)cc3)c3c(N)ncnc32)C1 [Ibrutinib] + COc1cc2c(Oc3ccc(NC(=O)C4(C(=O)Nc5ccc(F)cc5)CC4)cc3F)ccnc2cc1OCCCN1CCOCC1 [Foretinib] (partner 0.25 µM)
Summary of the method: (§1)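 After 5 days of treatment, lung cancer cells in 1536-well plates were fixed and stained in a single step (final 0.05% Triton X-100, 1% formaldehyde, 1 ug/ml Hoechst) and their nuclei counted on 4× images. Treatment had been applied by pin tool the day after seeding as one drug alone or as a fixed anchor-drug dose with five library-drug doses (not always all listed) in √10 steps. Relative viability is the nuclei count of treated wells divided by that of vehicle wells, and values are medians of duplicate plates.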

Ibrutinib + Olaparib = compound: C=CC(=O)N1CCC[C@@H](n2nc(-c3ccc(Oc4ccccc4)cc3)c3c(N)ncnc32)C1 [Ibrutinib] + O=C(c1cc(Cc2n[nH]c(=O)c3ccccc23)ccc1F)N1CCN(C(=O)C2CC2)CC1 [Olaparib] (partner 8 µM)
Summary of the method: as §1

BMX-IN-1 + Luminespib = compound: C=CC(=O)Nc1cc(-n2c(=O)ccc3cnc4ccc(-c5ccc(NS(C)(=O)=O)cc5)cc4c32)ccc1C [BMX-IN-1] + CCNC(=O)c1noc(-c2cc(C(C)C)c(O)cc2O)c1-c1ccc(CN2CCOCC2)cc1 [Luminespib] (partner 0.01 µM)
Summary of the method: as §1

PAC-1 + Tozasertib = compound: C=CCc1cccc(/C=N/NC(=O)CN2CCN(Cc3ccccc3)CC2)c1O [PAC-1] + Cc1cc(Nc2cc(N3CCN(C)CC3)nc(Sc3ccc(NC(=O)C4CC4)cc3)n2)n[nH]1 [Tozasertib] (partner 0.1 µM)
Summary of the method: as §1

Cell Line: SK-MES-1
- relative viability (Ibrutinib + Foretinib; first compound 0.005 µM): 1.03
- relative viability (Ibrutinib + Foretinib; first compound 0.01581 µM): 0.884
- relative viability (Ibrutinib + Foretinib; first compound 0.05 µM): 0.841
- relative viability (Ibrutinib + Foretinib; first compound 0.1581 µM): 0.989
- relative viability (Ibrutinib + Foretinib; first compound 0.5 µM): 0.582
- relative viability (Ibrutinib + Olaparib; first compound 0.005 µM): 0.748
- relative viability (Ibrutinib + Olaparib; first compound 0.01581 µM): 0.639
- relative viability (Ibrutinib + Olaparib; first compound 0.05 µM): 0.652
- relative viability (Ibrutinib + Olaparib; first compound 0.1581 µM): 0.879
- relative viability (Ibrutinib + Olaparib; first compound 0.5 µM): 0.461
- relative viability (BMX-IN-1 + Luminespib; first compound 0.02 µM): 0.831
- relative viability (BMX-IN-1 + Luminespib; first compound 0.2 µM): 0.879
- relative viability (BMX-IN-1 + Luminespib; first compound 0.6325 µM): 0.835
- relative viability (BMX-IN-1 + Luminespib; first compound 2 µM): 0.921
- relative viability (PAC-1 + Tozasertib; first compound 0.02 µM): 0.9
- relative viability (PAC-1 + Tozasertib; first compound 0.06325 µM): 0.916
- relative viability (PAC-1 + Tozasertib; first compound 0.2 µM): 0.892
- relative viability (PAC-1 + Tozasertib; first compound 2 µM): 0.916
